# From patent US20090176743A1 (priority 2005, published 2009)
# “Also recorded” adds a separate entry of the source.
# Legend:
# [1] = system: ICP0^− virus (n212); type: cell-based, HSV-1; settings: for effect of combined arginine and methionine deprivation on plating efficiency of ICP0- virus: three days in media containing all combinations of arginine, methionine and glutamine (FIG. 15); for effect of deprivation/refeeding on plating efficiency of ICP0- virus: 42 h in medium lacking the amino acid, normal medium 9 h, then n212 (FIG. 9)
# Experimental: Like isoleucine deprivation, serum starvation is a method commonly used to synchronize cells to G1 phase of the cell cycle. We then replaced the media with normal growth medium, infected cells with wild type (KOS) or ICP0^− virus (n212), and analyzed cells for cellular DNA content at 3-h intervals (FIG. 7).
# We infected the monolayers with an ICP0^− virus (n212) 9 h after the addition of normal medium (FIG. 8).
# Media were replaced with normal growth medium, and after a 9-h incubation, monolayers were infected with ICP0^− (n212).
# Cells were then infected with wild type or ICPO-virus to determine plating efficiency as described herein. […] In order to determine the role of isoleucine in these experiments, monolayers of cells were incubated for 42 hours in normal medium (Gln+ Ile+) or media lacking Ile, Gln, or both. Cells were then infected with wild type or ICP0^− virus to determine plating efficiency as described herein.
# For these experiments, monolayers were incubated for 1-5 days in the absence of each of the 15 amino acids present in DMEM. Cells were then infected with wild type or ICPO-virus to determine plating efficiency as described herein.
# Cells were then infected with wild type or ICPO-virus to determine plating efficiency as described herein.
# A. Ile deprivation and serum starvation. DMEM was prepared by dissolving all components individually, except Ile and Gln, in water according to Invitrogen's formulation for DMEM (catalog #11965) with 3 substitutions: 200 mg/l calcium chloride (anhydrous) for 264.92 mg/l calcium chloride dihydrate, 48 mg/l L-cystine for 63 mg/l L-cystine dihydrochloride, and 72 mg/l L-tyrosine for 104 mg/l L-tyrosine disodium salt, dihydrate. Medium was sterilized by passage through a 0.22 μm filter. Ile and Gln were added as needed, not more than two days prior to use, at final concentrations of 0.802 or 2 mM, respectively.
# Sixty-mm petri plates were seeded with 5×10^5 cells/plate and incubated 24 h at 37° C. For Ile deprivation experiments, medium was removed and monolayers were washed with warm Hanks' Balanced Salt Solution (HBSS) (37° C.) and overlaid with 4 ml warm Ile-free DMEM with 10% dialyzed FBS and 0 or 2 mM Gln. For serum starvation experiments, medium was removed and monolayers were washed with warm HBSS and overlaid with 4 ml warm serum-free DMEM with 0.802 mM Ile and 0 or 2 mM Gln. Monolayers in Ile- or serum-free media were incubated 42 h at 37° C. Media were replaced with warm DMEM containing 10% non-dialyzed FBS, 0.802 Ile, and 2 mM Gln. At 3-h intervals monolayers were infected with wild-type or ICP0-viruses to determine plating efficiency or analyzed for cellular DNA content by flow cytometry as described below.
# Infections to determine plating efficiency. Vero cell monolayers in 35-, 60-, and 100-mm plates were infected with volumes of 200 μl, 400 μl, or 2 ml/plate, respectively, with 5, 10, 20, 40, or 100 PFU/plate. For all experiments except Ile deprivation and serum starvation, titers were determined on 24-h-old Vero cell monolayers that had been seeded at a concentration of 1.5×10^5 Vero cells/35-mm plate and incubated at 37° C. […] Plates were incubated at 37° C. and shaken every 15 minutes for 1 h. Two, 4, or 10 ml of DMEM containing 5% FBS and 0.5% methyl cellulose was added to 35-, 60-, and 100-mm plates, respectively, and monolayers were incubated 3-5 days at 37° C. to allow plaques to form. Medium was aspirated, cells were stained with crystal violet, and plaques were counted.
# [2] = system: wild-type virus latent in mouse trigeminal ganglia; test: Mouse ocular/trigeminal ganglia (TG) cell culture model of reactivation from latency; type: cell-based, HSV-1
# Experimental: (For details on the model, see, for example, Leib et al., J. Virol. 63:759-768 (1989), Halford et al., J. Virol. 74:5957-5967. (2000), and Halford et al., J. Virol. 75:3240-3249 (2001)). For this experiment, mice were infected with the wild-type virus and 30 days later the trigeminal ganglia (TG) were removed and incubated in 3 24-well plates in medium containing acyclovir (ACV). As indicated below the x-axis of FIG. 16, on day 7 the acyclovir was removed. On day 11, 1 24-well plate was treated by: washing once with HBSS and replacing with Gln-free medium supplemented with 10% dialyzed FBS (red); washing once with HBSS and replacing with Gln-containing medium supplemented with 10% dialyzed FBS (green); or 3-hour incubation at 43° C. followed by replacement of medium with fresh medium (blue). On day 13, Gln-free and Gln-containing medium with dialyzed FBS was replaced with medium containing Gln and 10% normal FBS. On day 16, the 2 plates not previously heat shocked were incubated for 3 hours at 43° C. followed by replacement of medium with fresh medium. Starting on day 10, 10% of the volume of each well was transferred daily to 1 well of a 96-well plate previously seeded with Vero cells. After incubation at 37° C. for 7 days, monolayers of Vero cells in the 96-well plates were examined by light microscopy for cytopathic effect. […]
# [3] = system: HSV-1 (KOS strain); test: Heat-stress reactivation of latent HSV in mice treated with glutamine (Example 5); type: in vivo, mouse; settings: intraperitoneally or orally, heat stress 43° C. water 10 minutes
# Experimental: The strain of HSV and the method of propagation can be as described in Example 1.
# The mice can be infected by, e.g., the topical ocular route, and the establishment of a corneal infection can be documented by slit lamp examination and ocular swabs on day 3 after infection. Only animals which are successfully infected are retained for use in these experiments. Thirty days after infection, groups of latently infected and uninfected mice are treated with the glutamine composition. […] The mice are treated one day before heat stress and the day of the heat stress.
# The glutamine composition can be given intraperitoneally in some groups of mice and orally in others. This treatment can be continued on the day the animals are heat stressed by immersion into 43° C. water for 10 minutes. Twenty-four hours after the hyperthermic stress, the eyes are swabbed to culture any infectious virus, and the mice killed to collect the trigeminal ganglia. Ocular swabs are incubated in culture medium which is then transferred to Vero cell monolayers in 96 well culture plates. Units of infectious herpesvirus are recorded as units of cytopathic effect over a period of seven days. […] The units of cytopathic effect are recorded over a seven day incubation period. […]
# [4] = system: ICP0 promoter-CAT; test: Promoter-CAT expression in Vero cells after Ile deprivation/refeeding; type: cell-based, HSV-1; settings: 0-6 hours post-release
# Experimental: (§1) Vero cells and NB41A3 cells (mouse neuroblastoma cells) were treated by Ile deprivation/refeeding as in the previous experiment. The expression of viral gene promoters was then analyzed. Promoter-chloramphenicol acetyltransferase (CAT) expression from plasmids was measured following transfection of Vero cells treated by Ile-deprivation/refeeding. ICP0 and ICP4 promoter-CAT expression increased 6- or 4-fold, respectively, at early times (0-6 hours post-release) then decreased through 10 hours post-release. In cells from the mouse neuroblastoma cell line, NB41A3, ICP0, ICP4, and ICP22/47 promoter-CAT expression was increased 6-, 10-, or 5-fold, respectively.
# [5] = system: ICP4 promoter-CAT; test: as above; type: cell-based, HSV-1; settings: 0-6 hours post-release
# Experimental: as §1
# [6] = system: ICP0 promoter-CAT; test: Promoter-CAT expression in NB41A3 cells after Ile deprivation/refeeding; type: cell-based, HSV-1; settings: NB41A3 mouse neuroblastoma cells
# Experimental: as §1
# [7] = system: ICP22/47 promoter-CAT; test: as above; type: cell-based, HSV-1; settings: NB41A3 mouse neuroblastoma cells
# Experimental: as §1
# [8] = system: ICP4 promoter-CAT; test: as above; type: cell-based, HSV-1; settings: NB41A3 mouse neuroblastoma cells
# Experimental: as §1
# [9] = system: ICP0^− (7134) virus; settings: Ile-free medium 42 hours, refeeding; first 8 h post-release; cited from earlier work
# [10] = system: wt (KOS) virus; settings: Ile-free medium 42 hours, refeeding; all time points; cited from earlier work
# [11] = system: HSV; settings: presence of L-lysine; cited from earlier work
smiles,measurement,setting,value
N=C(N)NCCC[C@H](N)C(=O)O [arginine],effect of combined arginine and methionine deprivation on plating efficiency of ICP0- virus,[1],synergistic effect
NC(=O)CC[C@H](N)C(=O)O [glutamine],reactivation of wild-type virus from latency (wells positive for cytopathic effect),[2]; TG incubated in 0 mM Gln (FIG. 16),reactivated more rapidly and to the same extent as heat-shocked TG
same,reactivation of wild-type virus from latency (wells positive for cytopathic effect),[2]; TG incubated in the presence of 2 mM Gln (FIG. 16),significantly reduced reactivation
same,units of infectious herpesvirus on the ocular surface vs untreated heat-stressed animals,[3],statistically significantly lower units of infectious herpesvirus
CC[C@H](C)[C@H](N)C(=O)O [isoleucine],effect of deprivation/refeeding on plating efficiency of ICP0- virus,[1],little or no effect
same,increase of ICP0 promoter-CAT expression,[4],6 fold
same,increase of ICP4 promoter-CAT expression,[5],4 fold
same,increase of ICP0 promoter-CAT expression,[6],6 fold
same,increase of ICP22/47 promoter-CAT expression,[7],5 fold
same,increase of ICP4 promoter-CAT expression,[8],10 fold
same,increase in number of plaques produced by the ICP0- virus,[9],6 fold
same,number of plaques produced by wild type virus,[10],same number of plaques at all time points tested
"NCCCC[C@H](N)C(=O)O [lysine, L-lysine]",effect of deprivation/refeeding on plating efficiency of ICP0- virus,[1],slight enhancement; also recorded: slight increase
same,enhancement of plating efficiency of ICP0- virus by deprivation/refeeding,[1]; separate experiment,2-3 fold
same,replication efficiency of HSV in cell culture,[11],decrease the replication efficiency
CSCC[C@H](N)C(=O)O [methionine],effect of combined arginine and methionine deprivation on plating efficiency of ICP0- virus,[1],synergistic effect
